Eleven compounds from ChEMBL document CHEMBL5725996, “Heteroaryl substituted pyridyl compounds useful as kinase modulators” (2017) can be followed below.

This test addresses T1, Interleukin-1 receptor-associated kinase 4 (Homo sapiens, UniProt Q9NWZ3).
T1 sequence (Q9NWZ3 whole entry): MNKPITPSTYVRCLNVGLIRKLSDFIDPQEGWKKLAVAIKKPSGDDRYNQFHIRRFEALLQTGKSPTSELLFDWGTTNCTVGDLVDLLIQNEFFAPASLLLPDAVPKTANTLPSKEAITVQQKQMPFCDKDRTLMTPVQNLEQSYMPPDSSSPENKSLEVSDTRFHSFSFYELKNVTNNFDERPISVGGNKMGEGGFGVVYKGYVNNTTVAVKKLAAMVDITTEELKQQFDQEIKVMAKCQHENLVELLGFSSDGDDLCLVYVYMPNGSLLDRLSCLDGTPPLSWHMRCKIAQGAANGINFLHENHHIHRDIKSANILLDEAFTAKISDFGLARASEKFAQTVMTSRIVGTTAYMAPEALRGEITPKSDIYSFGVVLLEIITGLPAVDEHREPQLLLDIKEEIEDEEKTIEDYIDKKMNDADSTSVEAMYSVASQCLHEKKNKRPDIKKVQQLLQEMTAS
Put plainly: Inhibition Assay: The assays were performed in U-bottom 384-well plates. […] The reaction was initiated by the combination of IRAK4 with substrates and test compounds. The reaction mixture was incubated at room temperature for 60 min. and terminated by adding 45 μL of 35 mM EDTA to each sample. […] The final concentrations of reagents in the assays are ATP, 500 μM; FL-[…] peptide 1.5 μM; IRAK4, 0.6 nM; and DMSO, 1.6%.

As usually defined, the IC50 is the midpoint of a concentration-inhibition curve. With `CS[C@H]1CC[C@H](NC(=O)c2cnc(Nc3ncc(C#N)cc3F)cc2NC(C)C)CC1`, the IC50 stood at 12.5 nM.

As to `CCNC(=O)[C@H]1CC[C@H](NC(=O)c2cnc(Nc3ncc(C#N)cc3F)cc2NC(C)C)CC1`, the IC50 is 9.4 nM.

Turning to `CNC(=O)[C@H]1CC[C@H](NC(=O)c2cnc(Nc3ccc(C#N)cn3)cc2NC(C)C)CC1`, the IC50 came to 5.6 nM.

As to `CC(C)(O)[C@H](F)CNC(=O)c1cnc(Nc2ncncc2Cl)cc1NC1CC1`, the 50% inhibitory concentration (IC50) worked out at 5.5 nM.

As to `CC(C)Nc1cc(Nc2ncc(C#N)cc2Cl)ncc1C(=O)NC1CCC(C(C)(C)O)CC1` (stereo unspecified), the IC50 came out at 4.1 nM.

In the case of `CC(C)Nc1cc(Nc2ccc(C#N)cn2)ncc1C(=O)NC1CCC(O)(c2ccnn2C)CC1` (stereo unspecified), the IC50 is 4.6 nM.

Take `COC[C@H](F)CNC(=O)c1cnc(Nc2ncc(C#N)cc2F)cc1NC(C)C`: the IC50 amounted to 12.6 nM.

With `CC(C)Nc1cc(Nc2nc(OC3CCNCC3)ncc2Cl)ncc1C(=O)NC[C@@H](F)C(C)(C)O`, the IC50 was 19.9 nM.

Take `CC(C)(O)[C@H](F)CNC(=O)c1cnc(Nc2ncc(C#N)cc2Cl)cc1NC1CCOCC1`: the IC50 was found to be 2.1 nM.

In the case of `CC(C)(O)CNc1cc(Nc2ncc(C#N)cc2Cl)ncc1C(=O)NC[C@@H](F)C(C)(C)O`, the IC50 amounted to 9.3 nM.

Take `CC(=O)N[C@H]1CC[C@H](NC(=O)c2cnc(Nc3ncncc3Cl)cc2NC(C)C)CC1`: the IC50 turned out to be 16.8 nM.
